According to PMC6668441, “Comparative Study of Subcutaneous and Orthotopic Mouse Models of Prostate Cancer: Vascular Perfusion, Vasculature Density, Hypoxic Burden and BB2r-Targeting Efficacy” (Scientific Reports, 2019):

Key:
[1] = molecular target: T1, BB2r (gastrin-releasing peptide receptor) (Homo sapiens, UniProt P30550); assay: In vitro competitive cell-binding, displacement of [125I-Tyr4]-Bombesin on PC-3 cells; details: PC-3 cells (~3×10^4), 4 °C, 40 min, RPMI 1640 pH 7.4, mean ± SEM (n = 6)
T1 construct: host or cells: PC-3 human prostate cancer cells (whole cells in suspension)
T1 sequence (P30550 whole entry): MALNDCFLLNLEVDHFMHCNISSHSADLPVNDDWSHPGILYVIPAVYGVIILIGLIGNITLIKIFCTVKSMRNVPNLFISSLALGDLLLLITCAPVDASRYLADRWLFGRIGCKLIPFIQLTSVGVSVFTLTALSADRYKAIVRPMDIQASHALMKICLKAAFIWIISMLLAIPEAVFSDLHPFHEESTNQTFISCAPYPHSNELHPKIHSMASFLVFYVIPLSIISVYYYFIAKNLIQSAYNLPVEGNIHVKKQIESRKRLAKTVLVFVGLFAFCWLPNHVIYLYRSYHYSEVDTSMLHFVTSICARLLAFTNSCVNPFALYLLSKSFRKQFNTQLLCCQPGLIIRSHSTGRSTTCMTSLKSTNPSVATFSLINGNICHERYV
Description: Data were presented as Mean ± SD/SEM as noted. […] In vitro stability studies of the radioconjugate in various buffers were analyzed by the two-tailed Student’s t-test. For comparison between the two models, analysis of the biodistribution studies, hypoxic burden and blood vessel density of tumor was carried out by a two-tailed Student’s t-test. Comparisons of the means of the BB2r-uptake, blood perfusion, hypoxic burden and blood vessel density of the tumors among the three tumor volume groups for each animal model were analyzed by one-way ANOVA. If the overall p-value was statistically significant, pairwise comparisons were adjusted using Tukey’s method. A p-value < 0.05 was considered statistically significant.
In Vitro Competitive Cell-Binding Studies […]
binding assays using PC-3 cells.
(§1) Establishment of Stably Transfected PC-3-Luc Cells
(firefly)-2A-GFP (Puro), AMSBIO) for transfection.
The medium was removed and replaced with 0.5 […]
and swirled to mix. […] Once the cells grew to confluence, they […]
1.5 mL of suspended cells in PBS at […]
to culture for in vitro and in vivo studies.
Cells were incubated at 37 °C
Development of PC-3 Xenograft SCID Mice
The tumor size was monitored during the growth by caliper measurement.
Development of PC-3 Orthotopic SCID mice […]
clips. […] The animals were monitored continuously for the following weeks. […]

[2] = test system: subcutaneous PC-3 xenografts; assay: Biodistribution, perfusion tracer, subcutaneous PC-3 xenograft model; assay type: in vivo; details: 5 min p.i., mean ± SD
Description: (§2) For the subcutaneous model, 5-week old female SCID mice were inoculated in the flanks with 5 × 10^6 PC-3 cells (American Type Culture Collection (ATCC), VA) in Matrigel®. The tumor size was monitored by caliper. For the generation of the orthotopic model, the PC-3-Luc cells were selected by 0.5 µg/mL puromycin twice before inoculation. The male 6-weeks SCID mice were anesthetized, the muscles of the abdomen area were cut after retracting the skin, and the prostate gland exposed. 50 μL of PC-3-Luc cell suspension at 0.5 × 10^6/mL in Matrigel® was injected into a dorsal prostatic lobe. The wound was closed in two layers and the skin was clipped. Animals were given analgesic drugs for 3 days and the tumors were monitored by an IVIS optical imaging system.
(§3) The mice were injected, monitored and dissected in the lab with the temperature of 23 °C and 17% relative humidity. All animals were awake until sacrifice. The body weight, tumor volume and tumor luminescence of the mice were recorded every three days. At four-to-seven weeks post-xenograft implantation, the mice were divided into three groups by tumor volume: <300, 300–700 and >700 mm^3 in both animal models. […] Each mouse (average weight: 20 g for female mice and 25 g for male mice) was treated with pimonidazole solution (80 mg/kg in PBS) via intraperitoneal injection. […] After an additional 1 h, the mice were injected intravenously with a PBS solution containing 10 µCi (370 kBq) of [^99mTc]NaTcO4 and 15 mg/kg Hoechst 33342. The animals were sacrificed 5 minutes later, and their tissues collected. The excised tissues were weighed, the radioactivity for each tissue was measured by γ-counter and the percentage injected dose per gram (%ID/g) was calculated for each tissue. […]
The normal PC-3 cells and PC-3-Luc were cultured in our laboratory, as per ATCC protocols, in Ham’s F-12K medium
containing 10% FBS, 2.5 mM L-glutamine, 15 mM HEPES and 0.5 mM sodium pyruvate. Cells were incubated at 37 °C
(§4) All animal experiments were performed in accordance with the NIH animal use guideline and protocol approved by the […]

[3] = test system: orthotopic PC-3 xenografts; assay: Biodistribution, perfusion tracer, orthotopic PC-3 xenograft model; assay type: in vivo; details: for blood uptake / bone uptake / brain uptake / excretion (urine and fecal material) / heart uptake / kidney uptake / large intestine uptake / liver uptake / lung uptake / muscle uptake / pancreas uptake / small intestine uptake / spleen uptake / stomach uptake / tumor uptake (perfusion): orthotopic model, 10 µCi i.v., 5 min p.i., mean ± SD
Description: as §2, §3, §1
To generate the PC-3-Luc cells, we utilized pre-made lentivirus particles encoding luciferase and GFP (EF1a-Luciferase (firefly)-2A-GFP (Puro), AMSBIO) for transfection. Briefly, normal PC-3 cells were seeded in a 24-well plate using 0.5 mL of medium containing 0.5 × 10^5 cells/mL and incubated overnight. The medium was removed and replaced with 0.5 mL of fresh medium pre-mixed with 2.5 ȝL TransduxTM. To each well was added 2 ȝL of the lentivirus particle solution and swirled to mix. The plate was returned to the incubator and cultured for 3 days. Once the cells grew to confluence, they were harvested and transferred to larger plates (from 6-well plates to 60 mm dishes). 1.5 mL of suspended cells in PBS at a concentration of 5 × 10^6/mL was sorted by the FACS method to give the GFP positive (PC-3-Luc) cells that were returned to culture for in vitro and in vivo studies.
The normal PC-3 cells and PC-3-Luc were cultured in our laboratory, as per ATCC protocols, in Ham’s F-12K medium containing 10% FBS, 2.5 mM L-glutamine, 15 mM HEPES and 0.5 mM sodium pyruvate. Cells were incubated at 37 °C […]
as §4

[4] = tumor volume 300-700 mm^3, 10 µCi i.v.
[5] = tumor volume <300 mm^3, 10 µCi i.v.
[6] = tumor volume >700 mm^3, 10 µCi i.v.

CSCC[C@H](NC(=O)[C@H](CC(C)C)NC(=O)[C@H](Cc1c[nH]cn1)NC(=O)CNC(=O)[C@@H](NC(=O)[C@H](C)NC(=O)[C@H](Cc1c[nH]c2ccccc12)NC(=O)[C@H](CCC(N)=O)NC(=O)CCOCCOCCOCCOCCNC(=O)[C@@H](CO)NC(=O)[C@@H](CO)NC(=O)[C@@H](CO)NC(=O)[C@@H](CO)NC(=O)[C@@H](CO)NC(=O)CN1CCN(CC(=O)O)CCN(CC(=O)O)CCN(CC(=O)O)CC1)C(C)C)C(N)=O [DOTA-SP714, DOTA-(D)S-(D)S-(D)S-(D)S-(D)S-PEG3–BBN(7–14)NH2]
IC50 [1]: 9.8 ± 1.7 nM

[Na+].[O]=[Tc](=[O])(=[O])[O-] [[^99mTc]TcO4^−, sodium pertechnetate]
blood uptake [2, 4]: 0.88 ± 0.34 %ID/g | bone uptake [2, 4]: 0.16 ± 0.06 %ID/g | brain uptake [2, 4]: 0.03 ± 0.02 %ID/g | excretion (urine and fecal material) [2, 4]: 85.78 ± 9.65 %ID | heart uptake [2, 4]: 0.22 ± 0.11 %ID/g | kidney uptake [2, 4]: 0.53 ± 0.19 %ID/g | large intestine uptake [2, 4]: 0.43 ± 0.47 %ID/g | liver uptake [2, 4]: 0.41 ± 0.19 %ID/g | lung uptake [2, 4]: 0.49 ± 0.21 %ID/g | muscle uptake [2, 4]: 0.11 ± 0.04 %ID/g | pancreas uptake [2, 4]: 3.30 ± 2.30 %ID/g | small intestine uptake [2, 4]: 0.61 ± 0.43 %ID/g | spleen uptake [2, 4]: 0.87 ± 0.74 %ID/g | stomach uptake [2, 4]: 2.41 ± 1.25 %ID/g | tumor uptake (perfusion) [2, 4]: 0.68 ± 0.49 %ID/g | blood uptake [2, 5]: 1.01 ± 0.06 %ID/g | bone uptake [2, 5]: 0.34 ± 0.27 %ID/g | brain uptake [2, 5]: 0.06 ± 0.04 %ID/g | excretion (urine and fecal material) [2, 5]: 83.64 ± 9.63 %ID | heart uptake [2, 5]: 0.40 ± 0.24 %ID/g | kidney uptake [2, 5]: 0.66 ± 0.33 %ID/g | large intestine uptake [2, 5]: 0.44 ± 0.35 %ID/g | liver uptake [2, 5]: 0.67 ± 0.43 %ID/g | lung uptake [2, 5]: 0.74 ± 0.27 %ID/g | muscle uptake [2, 5]: 0.19 ± 0.11 %ID/g | pancreas uptake [2, 5]: 2.26 ± 1.95 %ID/g | small intestine uptake [2, 5]: 0.52 ± 0.38 %ID/g | spleen uptake [2, 5]: 1.35 ± 1.21 %ID/g | stomach uptake [2, 5]: 2.26 ± 1.06 %ID/g | tumor uptake (perfusion) [2, 5]: 0.51 ± 0.31 %ID/g | blood uptake [2, 6]: 2.61 ± 1.54 %ID/g | bone uptake [2, 6]: 0.34 ± 0.31 %ID/g | brain uptake [2, 6]: 0.06 ± 0.05 %ID/g | excretion (urine and fecal material) [2, 6]: 82.76 ± 12.78 %ID | heart uptake [2, 6]: 0.43 ± 0.38 %ID/g | kidney uptake [2, 6]: 1.11 ± 0.92 %ID/g | large intestine uptake [2, 6]: 0.53 ± 0.53 %ID/g | liver uptake [2, 6]: 0.85 ± 0.77 %ID/g | lung uptake [2, 6]: 1.24 ± 1.00 %ID/g | muscle uptake [2, 6]: 0.21 ± 0.20 %ID/g | pancreas uptake [2, 6]: 6.22 ± 6.53 %ID/g | small intestine uptake [2, 6]: 0.53 ± 0.43 %ID/g | spleen uptake [2, 6]: 0.43 ± 0.51 %ID/g | stomach uptake [2, 6]: 3.03 ± 2.52 %ID/g | tumor uptake (perfusion) [2, 6]: 0.86 ± 0.37 %ID/g | tumor uptake (perfusion) ([2]; tumor volume >700 mm^3, 10 µCi i.v., listed as [99mTc]TcO4-): 0.86 ± 0.35 %ID/g | stomach uptake, orthotopic versus subcutaneous model ([3]; Table S1): approximately 8 fold | tumor perfusion, orthotopic versus subcutaneous model ([3]; across tumor volume groups): 3.7–4.3 fold | blood uptake ([3]; tumor volume 300-700 mm^3): 3.51 ± 1.28 %ID/g | bone uptake ([3]; tumor volume 300-700 mm^3): 1.27 ± 0.68 %ID/g | brain uptake ([3]; tumor volume 300-700 mm^3): 0.18 ± 0.18 %ID/g | excretion (urine and fecal material) ([3]; tumor volume 300-700 mm^3): 37.55 ± 14.08 %ID | heart uptake ([3]; tumor volume 300-700 mm^3): 1.20 ± 0.63 %ID/g | kidney uptake ([3]; tumor volume 300-700 mm^3): 2.25 ± 2.25 %ID/g | large intestine uptake ([3]; tumor volume 300-700 mm^3): 2.24 ± 0.57 %ID/g | liver uptake ([3]; tumor volume 300-700 mm^3): 2.92 ± 0.95 %ID/g | lung uptake ([3]; tumor volume 300-700 mm^3): 2.78 ± 1.27 %ID/g | muscle uptake ([3]; tumor volume 300-700 mm^3): 0.59 ± 0.18 %ID/g | pancreas uptake ([3]; tumor volume 300-700 mm^3): 5.17 ± 5.32 %ID/g | small intestine uptake ([3]; tumor volume 300-700 mm^3): 1.36 ± 0.45 %ID/g | spleen uptake ([3]; tumor volume 300-700 mm^3): 1.70 ± 1.20 %ID/g | stomach uptake ([3]; tumor volume 300-700 mm^3): 19.15 ± 6.40 %ID/g | tumor uptake (perfusion) ([3]; tumor volume 300-700 mm^3): 2.94 ± 0.76 %ID/g | blood uptake ([3]; tumor volume <300 mm^3): 3.13 ± 1.02 %ID/g | bone uptake ([3]; tumor volume <300 mm^3): 1.10 ± 0.73 %ID/g | brain uptake ([3]; tumor volume <300 mm^3): 0.14 ± 0.04 %ID/g | excretion (urine and fecal material) ([3]; tumor volume <300 mm^3): 39.51 ± 22.40 %ID | heart uptake ([3]; tumor volume <300 mm^3): 1.29 ± 0.61 %ID/g | kidney uptake ([3]; tumor volume <300 mm^3): 1.85 ± 0.91 %ID/g | large intestine uptake ([3]; tumor volume <300 mm^3): 1.52 ± 0.36 %ID/g | liver uptake ([3]; tumor volume <300 mm^3): 2.51 ± 0.73 %ID/g | lung uptake ([3]; tumor volume <300 mm^3): 2.86 ± 1.06 %ID/g | muscle uptake ([3]; tumor volume <300 mm^3): 0.47 ± 0.20 %ID/g | pancreas uptake ([3]; tumor volume <300 mm^3): 4.94 ± 4.84 %ID/g | small intestine uptake ([3]; tumor volume <300 mm^3): 1.31 ± 0.31 %ID/g | spleen uptake ([3]; tumor volume <300 mm^3): 2.84 ± 1.87 %ID/g | stomach uptake ([3]; tumor volume <300 mm^3): 16.33 ± 4.08 %ID/g | tumor uptake (perfusion) ([3]; tumor volume <300 mm^3): 2.23 ± 1.09 %ID/g | blood uptake ([3]; tumor volume >700 mm^3): 3.96 ± 0.90 %ID/g | bone uptake ([3]; tumor volume >700 mm^3): 0.85 ± 0.49 %ID/g | brain uptake ([3]; tumor volume >700 mm^3): 0.16 ± 0.07 %ID/g | excretion (urine and fecal material) ([3]; tumor volume >700 mm^3): 46.43 ± 13.26 %ID | heart uptake ([3]; tumor volume >700 mm^3): 1.79 ± 0.87 %ID/g | kidney uptake ([3]; tumor volume >700 mm^3): 1.45 ± 0.64 %ID/g | large intestine uptake ([3]; tumor volume >700 mm^3): 2.14 ± 0.55 %ID/g | liver uptake ([3]; tumor volume >700 mm^3): 3.02 ± 0.77 %ID/g | lung uptake ([3]; tumor volume >700 mm^3): 3.34 ± 0.84 %ID/g | muscle uptake ([3]; tumor volume >700 mm^3): 0.63 ± 0.24 %ID/g | pancreas uptake ([3]; tumor volume >700 mm^3): 4.03 ± 3.24 %ID/g | small intestine uptake ([3]; tumor volume >700 mm^3): 1.32 ± 0.78 %ID/g | spleen uptake ([3]; tumor volume >700 mm^3): 1.80 ± 1.37 %ID/g | stomach uptake ([3]; tumor volume >700 mm^3): 15.44 ± 3.98 %ID/g | tumor uptake (perfusion) ([3]; tumor volume >700 mm^3): 3.19 ± 0.66 %ID/g | average tumor uptake of perfusion tracer, orthotopic versus subcutaneous model ([3]; tumor volume 300–700 mm^3, p = 0.0001): 4.3 fold | average tumor uptake of perfusion tracer, orthotopic versus subcutaneous model ([3]; tumor volume <300 mm^3, p = 0.0008): 4.1 fold | average tumor uptake of perfusion tracer, orthotopic versus subcutaneous model ([3]; tumor volume >700 mm^3, p = 0.0001): 3.7 fold
